What was measured:
[1] = test system: D4555 (Escherichia coli BioA) containing tobacco plants; assay: Visual herbicide damage score on transgenic tobacco D4555 (pCMP MTP EcBioA); format: in vivo; details: 600 gai/ha, replicate clones A, B, C of events 8480, 8526
Excerpt: In order to determine if the overexpressed gene detailed in Example 3 confers resistance to BIO3-BIO1 inhibiting compounds when expressed in plants, GM tobacco lines were produced and tested with BIO3-BIO1 inhibiting compounds. Transgenic tobacco plants expressing the Escherichia coli BioA gene with (SEQ ID NO:203) and without a mitochondrial signal peptide (SEQ ID NO: 202).
(§1) Populations of transgenic tobacco comprising 20-30 transgenic events per plant transformation constructs were generated as described in Example 1. These lines were clonally propagated and 1 clone per event was sprayed with 600 g ai/ha compound L or A+0.2% Genapol X080 with a spray volume of 200 L/Ha (“g ai/ha” refers to grams of active compound per hectare).
[…] A score of 0 indicates no visible damage or stunting whereas a score of 100 indicates a complete death of the plant. 20 transgenic events (i.e. individual transgenic plants) from each GM tobacco line were transplanted to soil 1 week prior to spraying with BIO3-BIO1 inhibiting compounds. WT tobacco was included as a control.
• D4555 (Escherichia coli BioA) containing tobacco plants; 04602 (Pantoea ananatis BioA) containing tobacco plants; 04603 (Stenotrophomonas maltophilia BioA) containing tobacco plants; 04609 (Chroococcidiopsis sp. CCMEE 29 BioA) containing tobacco plants; 04611 (Bacillus subtilis BioA) containing tobacco plants; 04606 (Streptomyces viridochromogenes BioA) containing tobacco plants; 04607 (Pedobacter hartonius BioA) containing tobacco plants; 04608 (Chitinophaga filiformis BioA) containing tobacco plants; and 04610 (Tenacibaculum adriaticum BioA) containing tobacco plants, are shown in the “TABLES” section below in Tables 16 to 24 respectively.

[2] = test system: D4597 (Arabidopsis thaliana BIO3-BIO1 G700S) containing tobacco plants; assay: Visual herbicide damage score on transgenic tobacco D4597 (pCMP AtBioDA G700S); format: in vivo; details: 600 gai/ha; 7 DAT; each table row is one D4597 transgenic plant
Excerpt: as §1
Herbicidal damage was visually assessed across the population and a herbicide damage score given at 7, 14 and 21 days. A score of 0 indicates no visible damage or stunting whereas a score of 100 indicates a complete death of the plant. 20 transgenic events (i.e. individual transgenic plants) from each GM tobacco line were transplanted to soil 1 week prior to spraying with BIO3-BIO1inhibiting compounds. WT tobacco was included as a control.
To determine if overexpression of variants detailed in Example 7 confer resistance to BIO3-BIO1 inhibiting compounds when expressed in plants, GM tobacco lines were produced using the methods in Example 1 and tested with BIO3-BIO1 inhibiting compounds.
Transgenic tobacco plants expressing the Arabidopsis thaliana BIO3-BIO1 variants C388D (SEQ ID NO:26), P421L(SEQ ID NO:41), F348C (SEQ ID NO:28), G700S (SEQ ID NO:39), W392S (SEQ ID NO:70) and the Zea mays BIO3-BIO1 variant C372D (SEQ ID NO:324). Populations of transgenic tobacco were sprayed and assessed as in Example 2

[3] = molecular target: T1, Arabidopsis thaliana BIO3-BIO1 (BioDA) mutants (Arabidopsis thaliana, UniProt B0F481, DEL508-508); assay: BIO3-BIO1 mutant enzyme activity in the presence of herbicide, percentage inhibition (fluorometric DAPA assay); format: biochemical; details: read-out: percentage inhibition
T1 construct: with the predicted N-terminal mitochondrial transit peptide removed; 6xHis-tag (N); thrombin cleavage site (N); made in house; host or cells: E. coli BL21 (DE3) bioA
Summary of the method: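 Percentage inhibition compares activity at one of three herbicide concentrations against DMSO, from o-phthalaldehyde-derivatised DAPA fluorescence (ex 410, em 470 nm). Purified N-His BIO3-BIO1 variants (50 nM, E. coli-expressed) saw herbicide 10 min at 20 °C in pH 8.6 EPPS buffer, then 20 μM KAPA plus 100 μM spermidine for 75 min at 20 °C.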

T1 sequence (B0F481 other isoform, or with tags, fused parts or gaps DEL508-508): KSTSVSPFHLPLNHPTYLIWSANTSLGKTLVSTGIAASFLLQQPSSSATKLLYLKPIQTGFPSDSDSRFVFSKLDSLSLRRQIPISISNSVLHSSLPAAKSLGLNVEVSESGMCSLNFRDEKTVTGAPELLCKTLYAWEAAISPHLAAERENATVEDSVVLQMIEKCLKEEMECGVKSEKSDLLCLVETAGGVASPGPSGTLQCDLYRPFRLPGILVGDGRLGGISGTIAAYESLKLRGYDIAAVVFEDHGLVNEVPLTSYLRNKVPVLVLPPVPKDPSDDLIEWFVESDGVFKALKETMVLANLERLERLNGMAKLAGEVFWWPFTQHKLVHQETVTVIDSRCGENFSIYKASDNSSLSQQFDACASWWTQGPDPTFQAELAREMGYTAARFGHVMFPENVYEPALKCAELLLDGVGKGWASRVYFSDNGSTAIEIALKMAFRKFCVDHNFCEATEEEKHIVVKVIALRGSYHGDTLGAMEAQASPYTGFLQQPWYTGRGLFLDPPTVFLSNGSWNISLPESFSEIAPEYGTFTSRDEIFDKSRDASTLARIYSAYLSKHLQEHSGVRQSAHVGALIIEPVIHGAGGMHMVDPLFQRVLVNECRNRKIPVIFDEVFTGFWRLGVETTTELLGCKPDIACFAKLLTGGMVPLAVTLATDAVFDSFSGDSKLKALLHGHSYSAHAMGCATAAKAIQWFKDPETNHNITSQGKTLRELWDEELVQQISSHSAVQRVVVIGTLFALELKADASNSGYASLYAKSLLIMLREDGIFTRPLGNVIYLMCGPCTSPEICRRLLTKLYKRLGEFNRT

Work on CCn1c(Cn2ccc(C(F)(F)F)n2)cc(=O)c(C(=O)O)c1-c1ccc(Cl)c(Cl)c1 [Compound L, 2-(3,4-dichlorophenyl)-1-ethyl-4-oxo-6-[[3-(trifluoromethyl)pyrazol-1-yl]methyl]pyridine-3-carboxylic acid] yielded a percentage of damage ([1]; 7 DAT) of 0%, a percentage of damage ([1]; 14 DAT) of 0% and a percentage of damage ([1]; 21 DAT) of 0%. The percentage of damage [2] was 10%.

Work on CCOC(=O)c1nn(-c2ccc3c(c2)OC(F)(F)C(F)(F)O3)c2cccc(C(C)=O)c2c1=O [Compound A, ethyl 5-acetyl-4-oxo-1-(2,2,3,3-tetrafluoro-1,4-benzodioxin-6-yl)cinnoline-3-carboxylate] yielded a percentage of damage ([1]; 7 DAT) of 0%, a percentage of damage ([1]; 14 DAT) of 0% and a percentage of damage ([1]; 21 DAT) of 0%. For the same molecule, the inhibition at 1 µM [3] was 22%.
